Converted amounts (≈) assume the structure as drawn. “Also recorded” adds a separate entry of the source. Where two headings read alike, the source gives them in different places. Where only a bound is given, the exact number is not on record here.

This is an account of results in patent US8975288B2 (priority 2013, dated 2015).

The test system of data set [1] is B. anthracis Sterne (pXO1+, pXO2−). Nature of the data set: microbe, parasite or virus in culture. Type of data set: cell-based. The conditions noted are these: Bacillus anthracis.
The subject of data set [2] is S. flexneri. Nature of the data set: microbe, parasite or virus in culture. Type of data set: cell-based. Conditions: Shigella flexneri.
A further data set relates to trans-translation. The data set is classed as biochemical, E. coli. Conditions: 10 μM final concentration; DHFR template lacking the stop codon; tagging efficiency vs no inhibitor control.
The subject of the next data set is B. anthracis ΔclpX+pclpX. Nature of the data set: microbe, parasite or virus in culture. Conditions: Bacillus anthracis, 24 h, read-out: IC50 ΔclpX + pclpX. The data set is classed as cell-based.
In another data set the test system is E. coli TolC mutant. Nature of the data set: microbe, parasite or virus in culture. The data set is classed as cell-based. The conditions noted are these: Escherichia coli, read-out: MIC E. coil TolC.
The subject of data set [3] is S. aureus methicillin-susceptible strain, Newman. Type of data set: cell-based.
Another data set deals with ΔclpX+pUTE29. Nature of the data set: microbe, parasite or virus in culture. The data set is classed as cell-based, B. anthracis. The conditions noted are these: Bacillus anthracis, 24 h, read-out: IC50 ΔclpX + pUTE29.
A further data set deals with MRSA strain, Sanger 252. Type of data set: cell-based, S. aureus.
Data set [4] deals with S. flexneri. Nature of the data set: microbe, parasite or virus in culture. The data set is classed as cell-based. Conditions: Shigella flexneri, 24 h, read-out: IC50 S. flexneri.
The subject of the next data set is B. anthracis spores. Type of data set: cell-based.
The next data set deals with B. anthracis. Type of data set: cell-based.
For the next data set, the system named is Mycobacterium smegmatis. Nature of the data set: microbe, parasite or virus in culture. The conditions noted are these: Mycolicibacterium smegmatis, read-out: MIC Mycobacterium smegmatis. Type of data set: cell-based.
Data set [5] concerns Auto-luminescent M. tuberculosis (LuxTB). Nature of the data set: microbe, parasite or virus in culture. The data set is classed as cell-based. Conditions: Mycobacterium tuberculosis, read-out: IC50 M. tuberculosis.
Another data set deals with WT B. anthracis Sterne. Nature of the data set: microbe, parasite or virus in culture. Type of data set: cell-based. The conditions noted are these: Bacillus anthracis, 24 h, read-out: IC50 WT B. anthracis.
A further data set deals with WT+pUTE29 (empty vector). Nature of the data set: microbe, parasite or virus in culture. The data set is classed as cell-based, B. anthracis. The conditions noted are these: Bacillus anthracis, 24 h, read-out: IC50 WT + pUTE29.
The next data set has as its system B. subtilis. Nature of the data set: microbe, parasite or virus in culture. Type of data set: cell-based. Conditions: Bacillus subtilis, 24 h, read-out: MIC B. subtilis.
The test system of another data set is B. anthracis Sterne. Type of data set: cell-based.
A further data set relates to B. anthracis ΔclpX. Nature of the data set: microbe, parasite or virus in culture. The data set is classed as cell-based. Conditions: Bacillus anthracis, 24 h, read-out: IC50 ΔclpX.
In a further data set the test system is HeLa cells. Conditions: human.
Data set [6] concerns Wild-type M. tuberculosis. Nature of the data set: microbe, parasite or virus in culture. Type of data set: cell-based. The conditions noted are these: Mycobacterium tuberculosis, read-out: MIC against M. tuberculosis.
Setting [7] is: read-out: MIC Bacillus anthracis.
The mark [8] stands for this setting: 24 h, read-out: MIC B. anthracis.
The mark [9] stands for this setting: 24 h, read-out: MIC S. flexneri.

As to `O=C(NC1CCCCC1)c1cccc(Cl)c1` [Compound 12, 3-chloro-N-cyclohexylbenzamide], the MIC (in data set [1] (read-out: MIC B. anthracis); in the data set on S. flexneri [2] (read-out: MIC S. flexneri)) was greater than 500 µM each time. Moreover, in the data set with trans-translation, the “% inhibition in vitro” value is given as 44.6%.
Regarding `CCCn1nnnc1NC(=O)c1ccc(N(CC)CC)cc1` [Compound 5, 4-(diethylamino)-N-(1-propyl-1H-tetrazol-5-yl)-benzamide], the MIC (in data set [1] (read-out: MIC B. anthracis); in the data set on S. flexneri [2] (read-out: MIC S. flexneri)) was greater than 500 µM throughout.
As for `O=C(Nc1nnnn1CCNS(=O)(=O)c1ccccc1)c1cccc(Cl)c1` [Compound 16, 3-chloro-N-(1-(2-(phenylsulfonamido)ethyl)-1H-tetrazol-5-yl)benzamide], in data set [1] (setting [7]), the MIC was 400 µM (≈ 163 µg/mL). The “% inhibition in vitro” value in the data set with trans-translation is listed as 37.0%.
Consider `CS(=O)(=O)NCCn1nnnc1NC(=O)c1cccc(Cl)c1` [Compound 14], for which the “% inhibition in vitro” value in the data set on trans-translation was found to be 47.8%.
On to `CCCn1nnnc1NC(=O)C1CCCC1` [Compound 8, N-(1-propyl-1H-tetrazol-5-yl)cyclopentane-carboxamide], for which the MIC (in [1] (read-out: MIC B. anthracis); with S. flexneri [2] (read-out: MIC S. flexneri)) was greater than 500 µM each time.
Broadly, the IC50 is the point on the concentration scale where inhibition reaches its midpoint. In the case of `CCCn1nnnc1NC(=O)c1cccc(Cl)c1` [Compound F2, reference compound], the IC50 with B. anthracis ΔclpX+pclpX is 14.8 µM; in the data set with ΔclpX+pUTE29 it was 22.3 µM; in the data set with S. flexneri [4], 5.95 µM; in [5] (48 h), 292 µM; in [5] (72 h) it was 226 µM; in data set [5] (96 h) it was 115 µM. The IC50 in the data set with WT B. anthracis Sterne stood at 17.6 µM; in the data set with WT+pUTE29 (empty vector), 27.5 µM; in the data set on B. anthracis ΔclpX, 27 µM. Besides, the MIC with E. coli TolC mutant was found to be 12.5 µM (≈ 3.32 µg/mL); in [1] (setting [8]), 31.2 µM (≈ 8.29 µg/mL); in data set [1] (read-out: MIC B. anthracis), 25 µM (≈ 6.64 µg/mL); in data set [1] (setting [7]), 25 µM (≈ 6.64 µg/mL); in the data set with S. flexneri [2] (setting [9]) it was 7.8 µM (≈ 2.07 µg/mL); with S. flexneri [2] (read-out: MIC S. flexneri) it was 3.13 µM (≈ 0.832 µg/mL). Besides, the results for the MIC in the data set on S. flexneri [2] (read-out: MIC Shigella flexneri), in the data set on Mycobacterium smegmatis and with B. subtilis were 3.1 µM (≈ 0.824 µg/mL), 25 µM (≈ 6.64 µg/mL) and 26.1 µM (≈ 6.93 µg/mL), respectively. In data set [3], the “Survival of S. aureus Newman” value is on record as “only slightly reduced; also recorded: No colonies were recovered”. Besides, the “Bacterial survival (cfu/ml) of MRSA” value with MRSA strain, Sanger 252 was “significantly reduced bacterial survival in a synergistic manner”. Further, the “Direct antimicrobial activity against MRSA Sanger 252” value in the data set with MRSA strain, Sanger 252 is listed as “direct antimicrobial activity”. For the same compound, the “Reduction of survival of MRSA Sanger 252” value in the data set on MRSA strain, Sanger 252 is given as “at least 10,000 fold”. Moreover, the “Survival of MRSA Sanger 252” value in the data set with MRSA strain, Sanger 252 is recorded as “only slightly reduced”. In the data set with B. anthracis spores, the “Vegetative cells from spores (inhibition of spore germination)” value is listed as “No vegetative cells were observed”. Besides, the “Killing of B. anthracis in human whole blood vs vehicle control” value in the data set on B. anthracis is on record as “significantly enhanced killing”. Further, the “Bacterial survival (cfu/ml) of B. anthracis Sterne” value in the data set with B. anthracis Sterne is reported as “significantly reduced bacterial survival in a synergistic manner”. In the data set with B. anthracis Sterne, the “Direct antimicrobial activity against B. anthracis Sterne” value is “direct antimicrobial activity”. Also, the “Survival of B. anthracis Sterne vs vehicle control” value in the data set on B. anthracis Sterne is “negligible effect on survival”. Besides, in the data set with trans-translation, the “% inhibition in vitro” value came to 88.0%. Further, the “Dose at which cytotoxicity in mammalian cells is seen” value in the data set with HeLa cells was 500 to 1000 µM.
`O=C(Nc1nnn[nH]1)c1cccc(Cl)c1` [Compound 9]: in the data set with trans-translation, the “% inhibition in vitro” value was found to be 78.9%.
On to `CCCn1nnnc1NC(=O)c1cccc(Br)c1` [Compound 2, 3-bromo-N-(1-propyl-1H-tetrazol-5-yl)benzamide], for which the MIC in [1] (read-out: MIC B. anthracis) was greater than 500 µM; in the data set on S. flexneri [2] (read-out: MIC S. flexneri), 250 µM (≈ 77.5 µg/mL).
The matching figures for `CCCn1nnnc1NC(=O)c1cccc(F)c1` [Compound 3, 3-fluoro-N-(1-propyl-1H-tetrazol-5-yl)benzamide]: greater than 500 µM and greater than 500 µM.
In the case of `CCCn1nnnc1NC(=O)c1ccc(N(C)C)cc1` [Compound 4, 4-(dimethylamino)-N-(1-propyl-1H-tetrazol-5-yl)benzamide], the MIC (in data set [1] (read-out: MIC B. anthracis); with S. flexneri [2] (read-out: MIC S. flexneri)) was greater than 500 µM in each case. Besides, in the data set on trans-translation, the “% inhibition in vitro” value was found to be 74.9%.
Regarding LL-37, in data set [3], the “Survival of S. aureus Newman” value was “only slightly reduced”. Moreover, the “Survival of MRSA Sanger 252” value in the data set on MRSA strain, Sanger 252 was “only slightly reduced”. For the same compound, the “Survival of B. anthracis Sterne vs vehicle control” value with B. anthracis Sterne is listed as “negligible effect on survival”.
Turning to `CCCn1nnnc1NC(=O)C1CCCCC1` [Compound 7, N-(1-propyl-1H-tetrazol-5-yl)cyclohexane-carboxamide], the MIC (in data set [1] (read-out: MIC B. anthracis); in the data set with S. flexneri [2] (read-out: MIC S. flexneri)) was greater than 500 µM in each case.
As to `O=C(Nc1ccncc1)c1cccc(Cl)c1` [Compound 11, 3-chloro-N-(pyridin-4-yl)benzamide], the MIC in [1] (read-out: MIC B. anthracis) was greater than 500 µM; in the data set on S. flexneri [2] (read-out: MIC S. flexneri) it was 500 µM (≈ 116 µg/mL). For the same compound, the “% inhibition in vitro” value in the data set with trans-translation was found to be 57.9%.
Regarding `NCCn1nnnc1NC(=O)c1cccc(Cl)c1` [Compound D, N-(1-(2-aminoethyl)-1H-tetrazol-5-yl)-3-chlorobenzamide], the MIC (in data set [1] (setting [8]); in the data set on S. flexneri [2] (setting [9]); with B. subtilis) was greater than 200 µM in each case. For the same compound, in the data set with trans-translation, the “% inhibition in vitro” value was found to be 52.3%.
As to `O=C(NC1CCCC1)c1cccc(Cl)c1` [Compound 13, 3-chloro-N-cyclopentylbenzamide], the MIC (in data set [1] (read-out: MIC B. anthracis); in the data set on S. flexneri [2] (read-out: MIC S. flexneri)) was greater than 500 µM throughout. Moreover, the “% inhibition in vitro” value in the data set with trans-translation is given as 71.6%.
Take `CCCn1nnnc1NC(=O)c1ccccc1` [Compound 1, N-(1-propyl-1H-tetrazol-5-y1)benzamide]: the MIC (in [1] (read-out: MIC B. anthracis); in the data set on S. flexneri [2] (read-out: MIC S. flexneri)) was greater than 500 µM each time.
As to `CCCCCCCCCC(=O)N[C@@H](Cc1c[nH]c2ccccc12)C(=O)N[C@H](CC(N)=O)C(=O)N[C@@H](CC(=O)O)C(=O)N[C@@H]1C(=O)NCC(=O)N[C@@H](CCCN)C(=O)N[C@@H](CC(=O)O)C(=O)N[C@H](C)C(=O)N[C@@H](CC(=O)O)C(=O)NCC(=O)N[C@H](CO)C(=O)N[C@@H]([C@H](C)CC(=O)O)C(=O)N[C@@H](CC(=O)c2ccccc2N)C(=O)O[C@@H]1C` [daptomycin], the “Effect on parental and complemented B. anthracis strains” value with B. anthracis Sterne is “not significantly affected”.
Turning to `O=C(Nc1ccccc1)c1cccc(Cl)c1` [Compound 10, 3-chloro-N-phenylbenzamide], the MIC (in data set [1] (read-out: MIC B. anthracis); in the data set with S. flexneri [2] (read-out: MIC S. flexneri)) was greater than 500 µM each time. Besides, the “% inhibition in vitro” value with trans-translation came out at 68.1%.
In the case of `CN(C)c1cccc2c(S(=O)(=O)NCCn3nnnc3NC(=O)c3cccc(Cl)c3)cccc12` [Dansyl-F2, 3-chloro-N-(1-(2-(5-(dimethylamino)naphthalene-1-sulfonamido)ethyl)-1H-tetrazol-5-yl)benzamide], the IC50 in the data set with B. anthracis ΔclpX+pclpX is 6.22 µM; with ΔclpX+pUTE29 it was 6.28 µM; in the data set on S. flexneri [4], greater than 200 µM; in data set [5] (48 h), 181 µM; in data set [5] (72 h) it was 100 µM; in [5] (96 h), 96.4 µM. For the same compound, the IC50 in the data set on WT B. anthracis Sterne was 5.28 µM; in the data set with WT+pUTE29 (empty vector), 9.88 µM; in the data set on B. anthracis ΔclpX it was 5.93 µM. Moreover, the MIC with E. coli TolC mutant was 25 µM (≈ 12.5 µg/mL); in data set [6], roughly 50 µM (≈ 25 µg/mL); in data set [1] (setting [8]) it was 7.8 µM (≈ 3.9 µg/mL); in [1] (setting [7]) it was 5.3 µM (≈ 2.65 µg/mL); in the data set on S. flexneri [2] (setting [9]), greater than 200 µM; in the data set on B. subtilis, 13.3 µM (≈ 6.65 µg/mL). The “Vegetative cells from spores (inhibition of spore germination)” value in the data set on B. anthracis spores is given as “No vegetative cells were observed”. Besides, the “% inhibition in vitro” value with trans-translation worked out at 89.1%.
